Data published in patent publication US8193224B2, “Medicinal composition for prevention or treatment of parasitic protozoan infection” (Fujifilm Corporation, priority 2004, dated 2012).
Read-outs that look alike come from different tables or passages of the source. Each block holds one compound with its values, some of them ahead of it.

Tests used:
Assay type in all cases: cell-based
[1] = test system: Plasmodium falciparum K1 strain; experiment: Chloroquine resistant-Plasmodium falciparum growth inhibition screening test
Experimental: In the present example, protozoa of Plasmodium falciparum K1 strain was used. RPMI-1640 medium sterilized with a filter to which human serum was added to be 5%, was used in the experiment. Malarial parasites were cultured under 3% O2 concentration, 4% Co2 concentration, 93% N2 concentration, and at a temperature of 37° C.
The compounds of the present invention to be used in the present test and the positive target drug (chloroquine) were dissolved in DMSO to make a test solution of a predetermined concentration. Cultured malarial parasite infected-erythrocytes were collected by centrifugation, and diluted with non-infected erythrocyte so that the early infection rate is 0.15%. Hematocrit level at that time was 2.5%. 200 μL of malaria infected solution was added to wells of a 96-well culture plate, and adjusted by adding a test solution containing drug of a predetermined concentration or a drug-free DMSO. Test solutions were taken by duplicates. After culturing for 48 hours at 37° C., 0.5 μCi radioactive tritium (3H)-labeled hypoxanthine was added to each well. After further culturing for 24 hours under the same conditions, it was collected on a glass fiber filter and washed with distilled water. Radiation intensity was measured with a beta plate liquid scintillation counter (Wallac), and malarial parasite infection rates of the test solution added group and of the control group were calculated. Growth inhibition rate was calculated with the following formula based on the malarial parasite infection rate obtained in the above, to obtain a 50% growth inhibition concentration (EC50). Growth inhibition rate (%)={1−(b−a)/(c−a)}×100 a: early infection rate b: infection rate when test solution was added c: infection rate of the control

[2] = Growth inhibition test of rat L6 cells; settings: L6 cells (rat skeletal myoblast)
Experimental: Rat derived-L6 cells (rat skeletal myoblast cell) were used. As medium, RPMI1640 medium was supplemented so that L-glutamin (200 mM) is 1%, and fetal bovine serum 10%, and the medium was cultured under CO2 concentration 5%, at 37° C. The compounds of the present invention and the target drugs to be used in the test were dissolved in DMSO, to make a test solution of a predetermined concentration. Pre-culture was conducted and medium containing cells which have entered the logarithmic growth phase was taken to wells of a 96-well culture plate. Then, a test solution containing drug of a predetermined concentration or a drug-free DMSO was added. Test solutions were taken by duplicates. Culture plate was cultured for 72 hours in an incubator, to test the growth inhibition activity. Test was conducted as follows.
10 μl of Alamar Blue aqueous solution was added to each well, and the resultant was further cultured for 2 hours. Next, the culture plate was placed on a fluorescent micro-plate reader (Spectramax Gemeni XS; US Molecular Device), radiated at an excited wavelength of 536 nm. Fluorescent intensity was measured at 588 nm, and residual rate of L6 cells of the test solution added group, and that of the control was calculated. Based on the cell residual rate obtained in the above, growth inhibition rate to L6 cells was calculated, to obtain a 50% growth inhibition concentration (EC50). Growth inhibition rate (%)={(C−A)/(B−A)}×100 A: primary cell count B: cell count of control, 3 days after C: cell count of wells added with a sample, 3 days after […]

[3] = test system: Trypanosoma brucei rhodensiense (STIB 900 strain); experiment: African trypanosome protozoa growth inhibition screening test; settings: Trypanosoma brucei, STIB900; STIB 900 strain, blood stream form, 72 hours, Alamar Blue; read-out: 50% growth inhibiting concentration Trypanosoma brucei rhod.
Experimental: In the present example, protozoa of Trypanosoma brucei rhodensiense (STIB 900 strain), a trypamastigote living in blood stream, was used. The medium used in the experiment was a MEM medium which was sterilized with a filter and supplemented with 25 mM N-2-hydroxyethylpiperazine-2-ethansulfonic acid […]), 1 g/L glucose, 1% MEM non-essential amino acid, 0.2 mM 2-mercaptoethanol, 2 mM sodium pyruvate, 0.1 mM hypoxanthine, and 15% heat-treated horse serum. The protozoa was cultured in an atmosphere of CO2 concentration 5%, at a temperature of 37° C.
The compounds of the present invention to be used in the present test and the positive target drug (melarsoprol) were dissolved in DMSO to make a test solution of a predetermined concentration. A medium containing 8×10^3 protozoa, and a test solution containing a drug of a predetermined concentration or a drug-free DMSO were added to wells of a 96-well culture plate, and subsequently, medium was added so that the amount in each well becomes 100 μL. Test solutions were taken by duplicates. After culturing the culture plate for 72 hours in an incubator, growth inhibition activity was tested. Test was conducted as follows. 10 μL of Alamar Blue aqueous solution was added to each well, and the resultant was further cultured for 2 hours. Next, the culture plate was placed on a fluorescent micro-plate reader (Spectramax Gemeni XS; US Molecular Device), radiated at an excited wavelength of 536 nm. Fluorescent intensity was measured at 588 nm, to calculate the trypanosome protozoa infected rate of the test solution added-group, and of the control group. From the protozoan infection rate obtained in the above, growth inhibition rate was calculated with the following formula, to obtain a 50% growth inhibition concentration (EC50). Growth inhibition rate (%)={1−(b−a)/(c−a)}×100 a: early infection rate b: infection rate when test solution was added c: infection rate of the control

[4] = test system: Leishmania donovani (MHOM/ET/67/L82 strain); experiment: Leishmania protozoa growth inhibition screening test; settings: Leishmania donovani; MHOM/ET/67/L82 strain amastigote, pH 5.4, 72 hours, Alamar Blue; read-out: 50% growth inhibition concentration Leishmania donovani
Experimental: In the present example, Leishmania donovani (MHOM/ET/67/L82 strain) was used. Protozoa was subcultured in Syrian Golden hamster, from which an amastigote was obtained. In the experiment, SM medium supplemented with 10% heat-treated bovine fetal serum was used, which was adjusted to pH 5.4, and cultured in an atmosphere of 5% CO2 concentration, at 37° C.
The compounds of the present invention to be used in the present test and the positive target drug (miltefosine) were dissolved in DMSO to make a test solution of a predetermined concentration. After adding a medium containing a predetermined number of protozoa to wells of a 96-well culture plate and pre-treating, concentration of the amastigote was measured with CASY cell analysis system (Scharfe, Germany). Then, test solution containing a drug of a predetermined concentration or a drug-free DMSO was added. Test solutions were taken by duplicates. After culturing the culture plate for 72 hours in an incubator, growth inhibition activity was tested. Test was conducted as follows.
10 μL of Alamar Blue aqueous solution was added to each well, and the resultant was further cultured for 2 hours. Next, the culture plate was placed on a fluorescent micro-plate reader (Spectramax Gemeni XS; US Molecular Device), radiated at an excited wavelength of 536 nm. Fluorescent intensity was measured at 588 nm, and infection rate of leishmania protozoa of the test solution added-group and control was calculated, to obtain a 50% growth inhibition concentration (EC50). Growth inhibition rate (%)={1−(b−a)/(c−a)}×100 a: early infection rate b: infection rate when test solution was added c: infection rate of the control

[5] = test system: Trypanosoma brucei rhodensiense (STIB 900 strain); experiment: African trypanosome protozoa growth inhibition screening test; settings: chemotherapy index = EC50 rat L6 cells / EC50 African trypanosome protozoa
[6] = test system: Leishmania donovani (MHOM/ET/67/L82 strain); experiment: Leishmania protozoa growth inhibition screening test; settings: chemotherapy index = EC50 rat L6 cells / EC50 leishmania protozoa
[7] = test system: Plasmodium falciparum FCR-3 strain; experiment: Drug sensitive-Plasmodium falciparum growth inhibition screening test; settings: for EC50: Plasmodium falciparum, FCR3, Erythrocyte, read-out: 50% growth inhibition concentration P. falciparum FCR; for Selective toxicity: chemotherapy index = EC50 mouse FM3A cells / EC50 drug sensitive P. falciparum
Experimental: In the present example, protozoa of Plasmodium falciparum FCR-3 strain was used. RPMI-1640 medium sterilized with a filter was used in the experiment. pH was adjusted to 7.4, and human serum was added to be 10%. Malarial parasites were cultured under 5% O2 concentration, 5% CO2 concentration, 90% N2 concentration, and at a temperature of 36.5° C.
Cultured malarial parasite infected-erythrocytes were collected by centrifugation, and washed in a medium containing serum. Non-infected erythrocytes were added so that the primary infection rate is 0.3%. Hematocrit level at that time was 3%. The compounds of the present invention to be used in the test and the positive target drugs (chloroquine, quinine) were dissolved in dimethylsulfoxide (DMSO) to make a test solution of a predetermined concentration. The test solution was added in an amount of 5 to 10 μl in a 24-well culture plate. To the control, DMSO was added in an amount of 10 μL/well. Test solutions were taken by duplicates. Subsequently, Plasmodium falciparum culture solution previously prepared to a predetermined concentration was added, pipetted quietly, and suspended in the medium similarly. Culture plate was cultured for 72 hours in a CO2—O2—N2(5%, 5%, 90%) incubator. Thin layer smear preparations were prepared for each well, and after performing Diff-Quick staining, the preparations were measured with a microscope (oil immersion, 1,000×), and malarial parasite infection rates of the test solution added-group and of the control group were calculated. Growth inhibition rate was calculated with the following formula from the malarial parasite infection rate obtained in the above, to obtain a 50% growth inhibition concentration (EC50). Growth inhibition rate (%)={1−(b−a)/(c−a)}×100 a: early infection rate b: infection rate when test solution was added c: infection rate of the control

[8] = Growth inhibition test of mouse FM3A cells
Experimental: F28-7 strain which is a wild-type of the mouse breast cancer derived FM3A cell was used. As for a medium, immobilized fetal bovine serum was added to a ES medium at 2%, which medium was cultured under CO2 concentration 5%, at 37° C. Doubling time of FM3A cells under that condition was approximately 12 hours. Pre-culture was conducted and cells which have entered the logarithmic growth phase were diluted in a medium to be 5×10^4 cells/mL Those prepared when measuring malarial activity were used as a sample. Sample solution was added in an amount of to 10 μL in a 24-well culture plate (the final concentration was 1×10^−4 to 1×10^−5, by adding media etc). Compounds were taken by duplicates, and wells added with 10 μL DMSO were prepared at the same time as a control. Next, cultured cell suspension previously prepared was added in an amount of 990 to 995 μL, pipetted quietly and suspended in a medium similarly. After culturing 48 hours, the cells were counted with a cell controller (CC-108, Toa. Medical Electrics) for each well. Growth rate was calculated with the following formula, to obtain a 50% growth inhibition rate (EC50). Growth rate (%)={(C−A)/(B−A)}×100 A: primary cell count B: cell count of the control, 2 days after C: cell count of wells added with a sample, 2 days after
Cell growth inhibiting activity was calculated from cell count of wells added with a sample, and cell count of the control.

[9] = test system: Trypanosoma cruzi (Tulahuen C2C4 strain); experiment: American trypanosome protozoa growth inhibition screening test
Experimental: In the present example, amastigote and trypomastigote infected with rat L6 cells of protozoa of Trypanosoma cruzi (Tulahuen C2C4 strain) were used. As medium used in the test, RPMI 1640 medium containing L6 cells was supplemented so that L-glutamine (200 mM) becomes 1%, fetal bovine serum becomes 10%, which was cultured under CO2 concentration 5%, at 37° C.
The compounds of the present invention to be used in the test and the positive target agent (benznidazole) were dissolved in DMSO to make a test solution of a predetermined concentration. A medium containing 5×10^3 protozoa was added to wells of a 96-well culture plate, and pre-cultured for 48 hours. After replacing the medium, test solution containing drug of a predetermined concentration or a drug-free DMSO was added. Test solutions were taken by duplicates. After culturing the culture plate in an incubator for 96 hours, growth inhibition activity was tested. Test was conducted as follows.
50 μL of CPRG/Nonidet was added to each well, and allowed to rest for 2 to 6 hours. Next, the culture plate was placed on a fluorescent micro-plate reader, and the absorbance was measured at 540 nm. Growth inhibition rate was calculated with the following formula based on the protozoan infection rate which was obtained by calculating trypanosome infection rate of the test solution added group and control group, to obtain a 50% growth inhibition concentration (EC50). Growth inhibition rate (%)={1−(b−a)/(c−a)}×100 a: early infection rate b: infection rate when test solution was added c: infection rate of the control

[10] = drug sensitive FCR-3 strain, infected erythrocytes, cultured 72 hours, microscopy

SMILES: CCn1c(=O)/c(=C/C=C2\Sc3ccc4ccccc4c3N2C)s/c1=C\c1sc2ccc3ccccc3c2[n+]1CC [A-2]
EC50 [7, 10]: 100 nM | Selective toxicity [7]: 8 | EC50 at 48 h ([8]; mouse): 800 nM

SMILES: CCN(CC)CCCC(C)Nc1ccnc2cc(Cl)ccc12 (centres unmarked) [chloroquine, reference compound]
EC50 ([7]; 72 h): 18 nM | Selective toxicity [7]: 1780 | EC50 at 48 h ([8]; mouse FM3A cells, 48 hours, cell count (Table 1), read-out: 50% growth inhibition concentration Cytotoxicity FM3A): 32000 nM

SMILES: CCC[n+]1c(/C=c2\s/c(=C\C=C3/SCCN3CC)c(=O)n2CC)sc2c3ccccc3ccc21 [A-16]
EC50 at 72 h ([2]; Alamar Blue (Table 3), read-out: 50% growth inhibiting concentration Cytotoxicity L6): 940 nM | EC50 [3]: 30 nM | EC50 ([9]; Trypanosoma cruzi, Tulahuen C2C4 strain in rat L6 cells, 96 hours, CPRG/Nonidet, read-out: 50% growth inhibition concentration Trypanosoma cruzi): 90 nM | Selective toxicity ([9]; chemotherapy index = EC50 rat L6 cells / EC50 American trypanosome protozoa): 10 | EC50 [4]: 8 nM | Selective toxicity [5]: 31 | Selective toxicity [6]: 120

SMILES: CCN1C=CC=C/C1=C\C=c1/s/c(=C\c2cc[n+](CC)c3ccccc23)n(CC)c1=O [A-11]
EC50 [7, 10]: 600 nM | Selective toxicity [7]: >23 | EC50 at 48 h ([8]; mouse): > 14000 nM

SMILES: C=C[C@H]1C[N@@]2CC[C@H]1C[C@H]2[C@H](O)c1ccnc2ccc(OC)cc12 [quinine, reference compound]
EC50 [7, 10]: 110 nM | Selective toxicity [7]: 910 | EC50 at 48 h ([8]; mouse): 100000 nM

Further lines, with some results ahead:

EC50 ([1]; Plasmodium falciparum, 72 h, chloroquine resistant K1 strain, 3H-hypoxanthine, 48 + 24 hours, read-out: 50% growth inhibition concentration P. falciparum K1): 38 nM | EC50 [3]: 93 nM | EC50 [4]: 11 nM
SMILES: CCN1CCS/C1=C\C=c1/s/c(=C\c2sc3c4ccccc4ccc3[n+]2CCO)n(CC)c1=O [A-17]
Selective toxicity ([1]; chemotherapy index = EC50 rat L6 cells / EC50 chloroquine resistant P. falciparum): 1400 | EC50 at 72 h ([2]; Alamar Blue (Table 2), read-out: 50% growth inhibition concentration Cytotoxicity L6): 53000 nM | Selective toxicity [5]: 570 | Selective toxicity [6]: 4800

EC50 [7, 10]: 75 nM
SMILES: CCn1c(=O)/c(=C/C=C2\Sc3ccc4ccccc4c3N2C)s/c1=C\c1scc(C)[n+]1CC [A-3]
Selective toxicity [7]: 20 | EC50 at 48 h ([8]; mouse): 1500 nM
